How the values were obtained:
[1] = 101.3 kPa, Liquid
[2] = molar heat capacity at constant pressure; details: 298.15 K; 101.33 kPa; Liquid; Flow calorimetry
[3] = xn = mol fraction of the nth substance listed; details: 101.3 kPa, Liquid

Cc1ccc(C)c(C)c1 [1,2,4-trimethylbenzene]
[1]
Details	mass density [kg/m3]
298.15 K	871.56
308.15 K	862.53

Details	molar heat capacity at constant pressure [J/K/mol]
[2]	213.02

Cc1ccccc1C [1,2-dimethylbenzene]
[1]
Details	mass density [kg/m3]
298.15 K	875.55
308.15 K	866.29

Details	molar heat capacity at constant pressure [J/K/mol]
[2]	187.28

Cc1cc(C)cc(C)c1 [1,3,5-trimethylbenzene]
[1]
Details	mass density [kg/m3]
298.15 K	860.9
308.15 K	851.88

Details	molar heat capacity at constant pressure [J/K/mol]
[2]	207.43

Cc1cccc(C)c1 [1,3-dimethylbenzene]
[1]
Details	mass density [kg/m3]
298.15 K	859.68
308.15 K	850.01

Details	molar heat capacity at constant pressure [J/K/mol]
[2]	181.38

Cc1ccc(C)cc1 [1,4-dimethylbenzene]
[1]
Details	mass density [kg/m3]
298.15 K	856.48
308.15 K	846.98

Details	molar heat capacity at constant pressure [J/K/mol]
[2]	181.73

COc1ccccc1 [anisole]
[1]
Details	mass density [kg/m3]
298.15 K	988.98
308.15 K	978.7

Details	molar heat capacity at constant pressure [J/K/mol]
[2]	191.54

N#Cc1ccccc1 [benzonitrile]
[1]
Details	mass density [kg/m3]
298.15 K	1000.25
308.15 K	990.67

Details	molar heat capacity at constant pressure [J/K/mol]
[2]	166.41

N#Cc1ccccc1 [benzonitrile] + Cc1cccc(C)c1
[3], 298.15 K, Flow calorimetry
Details	excess molar heat capacity [J/K/mol]
x1 = 0.0568	0.522
x1 = 0.0772	0.686
x1 = 0.1671	1.299
x1 = 0.2404	1.53
x1 = 0.3272	1.727
x1 = 0.4115	1.696
x1 = 0.4878	1.66
x1 = 0.5753	1.415
x1 = 0.6422	1.272
x1 = 0.7301	0.936
x1 = 0.8157	0.683
x1 = 0.887	0.377
x1 = 0.9334	0.254

mass density [kg/m3], [3]
Details	x1 = 0.0741	x1 = 0.1804	x1 = 0.316	x1 = 0.4608	x1 = 0.5438	x1 = 0.6475	x1 = 0.74	x1 = 0.8816	x1 = 0.899	x1 = 1
298.15 K	869.26	883.15	901.15	920.81	932.33	947.01	960.47	981.74	984.42	1000.25
308.15 K	859.61	873.5	891.52	911.17	922.69	937.4	950.87	972.18	974.85	990.67

N#Cc1ccccc1 [benzonitrile] + Cc1ccccc1C
[3]
Details	excess molar heat capacity, 298.15 K [J/K/mol]	mass density, 298.15 K [kg/m3]	mass density, 308.15 K [kg/m3]
x1 = 0.0394	0.448	–	–
x1 = 0.0781	0.829	–	–
x1 = 0.0815	–	884.98	875.72
x1 = 0.1262	–	890.21	881
x1 = 0.1398	1.273	–	–
x1 = 0.1604	–	894.21	884.95
x1 = 0.2299	1.689	–	–
x1 = 0.2579	–	905.68	896.47
x1 = 0.2803	1.799	–	–
x1 = 0.3687	1.875	–	–
x1 = 0.4054	–	923.32	914.01
x1 = 0.4391	1.792	–	–
x1 = 0.496	–	934.4	925.13
x1 = 0.5361	–	939.32	929.98
x1 = 0.5364	1.592	–	–
x1 = 0.611	1.376	–	–
x1 = 0.6558	–	954.37	945.1
x1 = 0.6924	–	959.03	949.64
x1 = 0.7003	1.11	–	–
x1 = 0.7684	0.826	–	–
x1 = 0.8727	0.479	–	–
x1 = 0.876	–	983.2	973.86
x1 = 0.9031	–	986.86	977.39
x1 = 0.9314	0.242	–	–
x1 = 0.9608	–	994.84	985.42
x1 = 1	–	1000.25	990.67

CCc1ccccc1 [ethylbenzene]
[1]
Details	mass density [kg/m3]
298.15 K	862.41
308.15 K	852.72

Details	molar heat capacity at constant pressure [J/K/mol]
[2]	185.44

CCc1ccccc1 [ethylbenzene] + N#Cc1ccccc1
[3], x2 = 0
Details	mass density [kg/m3]
298.15 K	862.41
308.15 K	852.72

CC(C)c1ccccc1 [isopropylbenzene]
[1]
Details	mass density [kg/m3]
298.15 K	857.41
308.15 K	848.26

Details	molar heat capacity at constant pressure [J/K/mol]
[2]	214.75

CC(C)c1ccccc1 [isopropylbenzene] + N#Cc1ccccc1
[3], 298.15 K, Flow calorimetry
Details	excess molar heat capacity [J/K/mol]
x2 = 0.0812	1.087
x2 = 0.1147	1.448
x2 = 0.2052	2.23
x2 = 0.3131	2.763
x2 = 0.3691	2.935
x2 = 0.4488	2.929
x2 = 0.5194	2.919
x2 = 0.6256	2.511
x2 = 0.6997	2.226
x2 = 0.8003	1.545
x2 = 0.9038	0.825
x2 = 0.9407	0.527

mass density [kg/m3], [3]
Details	298.15 K	308.15 K
x2 = 0	857.41	848.26
x2 = 0.0581	864.33	855.15
x2 = 0.0865	867.75	858.59
x2 = 0.2036	882.15	872.93
x2 = 0.2835	892.28	883.09
x2 = 0.3445	900.22	891.02
x2 = 0.3887	906.07	896.85
x2 = 0.4445	913.59	904.41
x2 = 0.5627	930.2	920.94
x2 = 0.6557	943.85	934.41
x2 = 0.7271	954.72	945.3
x2 = 0.8102	967.92	958.51
x2 = 0.9017	983.11	973.75

From the NIST ThermoML archive (doi:10.1016/j.jct.2006.09.007)
